The source of these data is patent US12448352B2, “Beta adrenergic agonist and methods of using the same” (Curasen Therapeutics, Inc., priority 2019, dated 2025).

One series relates to MDCK-MDR1 cells. The experiment in a line: MDCK-MDR1 permeability assay. The format is in vitro ADME. More on the design: A-B (Papp apical to basolateral) / B-A (Papp basolateral to apical): unit not given here. On the procedure:
Preparation of MDCK-MDR1 Cells. Cell culture medium of was added to each well of the Transwell insert (50 μL) and reservoir (25 mL). The HTS transwell plates were then incubated at 37° C., 5% CO2 for 1 hour before cell seeding. MDCK-MDR1 cells were diluted to 1.56×10^6 cells/mL with culture medium and 50 μL of cell suspension were dispensed into the filter well of the 96-well HTS Transwell plate. Cells were cultivated for 4-8 days in a cell culture incubator at 37° C., 5% CO2, 95% relative humidity. Cell culture medium was replaced every other day, beginning no later than 24 hours after initial plating.
Preparation of Stock Solutions. 10 mM stock solutions of test compounds were prepared in DMSO. The stock solutions of positive controls were prepared in DMSO at the concentration of 10 mM. Metoprolol, prazosin and imatinib were used as control compounds in this assay.
Assessment of Cell Monolayer Integrity. Medium was removed from the reservoir and each Transwell insert and replaced with prewarmed fresh culture medium. Transepithelial electrical resistance (TEER) across the monolayer was measured using Millicell Epithelial Volt-Ohm measuring system (Millipore, USA). The Plate was returned to the incubator once the measurement was done. TEER value should be greater than 42 ohm·cm2, which indicates the well-qualified MDCK-MDR1 monolayer. The TEER value was calculated according to the following equation: TEER measurement (ohms)×Area of membrane (cm^2)=TEER value (ohm·cm^2)
Assay Procedures. The MDCK-MDR1 plate was removed from the incubator and washed twice with pre-warmed HBSS (10 mM HEPES, pH 7.4), and then incubated at 37° C. for 30 minutes. The stock solutions of test compounds and controls were diluted in DMSO to get 1 mM solutions and then diluted with HBSS (10 mM HEPES, pH 7.4) to get 5 μM working solutions. The final concentration of DMSO in the incubation system was 0.5%. […]

Series [1] can be described thus: Rat pharmacokinetic study (plasma). Type of series: in vivo, male SD rats. On the procedure: (§1) The rat pharmacokinetics studies of exemplary compounds 03-3, 03-5, and 03-115 were conducted with male SD rats. These rats were typically about 6-8 weeks old, weighing 200 g to 300 g. Animals were fasted overnight and free access to food 4 hours after dosing. A required volume of vehicle was added to reach the target concentration of the test article and vehicle component to prepare for the dosing. The dosing vehicle was PEG400 or 30% PEG400 in saline for IV, or 0.5% methylcellulose in water for PO. For IV dosing, the animals were administered intravenously via tail vein. For PO dosing, the animals were administered via oral gavage. After dosing, blood sample was collected (˜0.2 mL per time point) through jugular vein or heart puncture. Blood of each sample was transferred into plastic micro centrifuge tubes containing EDTA-K2. Collection tubes with blood samples and anticoagulant were inverted several times for proper mixing of the tube contents and then placed on wet ice. The blood samples were centrifuged at 2000 g for 5 minutes at 4° C. to obtain plasma which was stored in a freezer at −75±15° C. prior to analysis. Samples were analyzed using LC-MS/MS. WinNonlin were used for pharmacokinetic calculations.

Series [2] in a line: Dog pharmacokinetic study. Type of series: in vivo, male Beagle dogs. On the procedure: as §1
Dog pharmacokinetics studies of exemplary compounds 03-3, 03-5, and 03-115 were conducted substantially similarly to the rat pharmacokinetic studies, instead using male Beagle dogs. Animals for PO studies were food fasted overnight prior to dosing and were fed approximately 2 hours after dosing. Animals for IV studies had free access to food and water. Blood samples were collected through venipuncture of peripheral veins except the dosing vein.

A short description of series [3]: Monkey pharmacokinetic study. Type of series: in vivo, male Non-Naïve Cynomolgus Monkeys. The conditions noted are these: PO 0.3 mg/kg. On the procedure:
as §1
Monkey pharmacokinetics studies of exemplary compounds 03-3, 03-5, and 03-115 were conducted substantially similarly to the rat pharmacokinetic studies, instead using male Non-Naïve Cynomolgus Monkeys. Animals for PO studies were food fasted overnight prior to dosing and were fed approximately 2 hours after dosing. Animals for IV studies had free access to food and water. Blood samples were collected through venipuncture of peripheral veins except the dosing vein.

For orientation: Cmax means the maximum level reached in the sampled fluid or tissue. The term Tmax denotes the time from dosing to the highest level. A word on the MRT: it is a mean duration of stay, worked out from the concentration-time curve.

With `Cc1ncccc1[C@@H](O)CNC(C)(C)C` [Compound 03-115], in the series on MDCK-MDR1 cells (MDCK-MDR1, 5 μM, 2 hours), the “A-B (Papp apical to basolateral)” value is 6.96 and the “B-A (Papp basolateral to apical)” value is 10.98. The “Efflux Ratio” value in the series with MDCK-MDR1 cells (MDCK-MDR1, Papp (B-A)/Papp (A-B)) worked out at 1.58. In series [1] (IV 1 mg/kg), this compound displayed an AUCInf of 164 ng·h/mL, a C0 of 512 ng/mL, a T1/2 of 0.36 h and a Vss_obs of 2.4 L/kg. In series [1] (PO 5 mg/kg), this compound had an AUCInf of 192 ng·h/mL, a Cmax of 174 ng/mL, an MRTInf_obs of 1.06 h and a T1/2 of 1.61 h. In addition, in series [1] (PO 5 mg/kg), the Tmax was found to be 0.25 h. In series [2] (PO 0.5 mg/kg), the AUCInf came out at 132 ng·h/mL, the Cmax turned out to be 72.3 ng/mL, the MRT is reported as 1.82 h and the Tmax is on record as 0.5 h. In series [2] (PO 1.5 mg/kg), the AUCInf was found to be 537 ng·h/mL, the Cmax came to 387 ng/mL, the MRT was 1.69 h and the Tmax is listed as 0.33 h. Moreover, in series [3], the AUCInf was determined as 261 ng·h/mL, the Cmax is recorded as 67 ng/mL, the MRTInf_obs amounted to 3.46 h and the Tmax is 1.17 h.
